Laboratory results: US20020103192A1, “Inhibitors of histone deacetylase” (priority 2000, published 2002)

| Compound | melting point [°C] |
| --- | --- |
| O=C(CCCCCCSc1ccc2ccccc2c1)c1ncco1 [Example 104, 7-(2-naphthylsulfanyl)-1-(1,3-oxazol-2-yl)-1-heptanone] | 65 to 66 |
| CNC(=O)C(=O)CCCCCCSc1ccc2ccccc2c1 [Example 106, N-methyl-8-(2-naphthylsulfanyl)-2-oxooctanamide] | 94 to 95 |
| CNC(=O)C(=O)CCCCCCS(=O)(=O)c1ccc2ccccc2c1 [Example 107, N-methyl-8-(2-naphthylsulfonyl)-2-oxooctanamide] | 108 to 109 |
| CNC(=O)C(=O)CCCCCCSc1ccc(-c2ccccc2)cc1 [Example 108, 8-((1,1′-biphenyl)-4-ylsulfanyl)-N-methyl-2-oxooctanamide] | 131 to 132 |
| O=C(NCCCCCC(=O)c1ncco1)c1cc2ccccc2[nH]1 [Example 111, N-(6-(1,3-oxazol-2-yl)-6-oxohexyl)-1H-indole-2-carboxamide] | 176 to 179 |
| CC(=O)C(=O)CCCCCCOc1ccc(-c2ccccc2)cc1 [Example 113, 9-((1,1′-biphenyl)-4-yloxy)-2,3-nonanedione] | 110 to 111 |

Further lines, results first:

| melting point [°C] | Compound |
| --- | --- |
| 39 to 40 | O=C(CCCCCCSc1ccccc1)c1ncco1 [Example 102, 1-(1,3-oxazol-2-yl)-7-(phenylsulfanyl)-1-heptanone] |
| 55 to 56 | O=C(CCCCCCS(=O)(=O)c1ccccc1)c1ncco1 [Example 103, 1-(1,3-oxazol-2-yl)-7-(phenylsulfonyl)-1-heptanone] |
| 75 to 76 | O=C(CCCCCCS(=O)(=O)c1ccc2ccccc2c1)c1ncco1 [Example 105, 7-(2-naphthylsulfonyl)-1-(1,3-oxazol-2-yl)-1-heptanone] |
| 153 to 156 | O=C(NCCCCCCC(=O)c1ncco1)c1cc2ccccc2[nH]1 [Example 110, N-(7-(1 ,3-oxazol-2-yl)-7-oxoheptyl)-1H-indole-2-carboxamide] |
